Assay results taken from US20100292205A1, “Pyrimidone Compounds As GSK-3 Inhibitors” (PFIZER INC., priority 2006, published 2010).
Read-outs that look alike come from different tables or passages of the source. Each block holds one compound with its values, some of them ahead of it.

Biological target: T1, Recombinant human GSK3β (Homo sapiens, UniProt P49841)
T1 construct: His-tag; made in house; host or cells: Sf9 insect cells / baculovirus
Test: GSK-3β (Glycogen Synthase Kinase) cell free enzyme assay
Type: biochemical
Details: for IC50: cell free enzyme assay; for inhibition at 1 µM: read-out: Percent inhibition at 1 μM
Method in brief: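 Recombinant human GSK3β, expressed in SF9/baculovirus cells and His-tag purified on Ni-NTA Superflow, was preincubated with test agent for 30 minutes at room temperature. Substrate mix was then added to start the reaction in 8 mM MOPS (pH 7.0), 10 mM magnesium acetate, 0.2 mM EDTA, 1 mM DTT, 2 uM cold ATP, 0.025 uCi/well [33P]ATP (120 uL) and 1.0 uM biotinylated peptide. Reactions ran at RT for 60 min.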

[1] = 1 μM, GSK-3β cell free enzyme assay, Examples 42-60

T1 sequence (P49841 whole entry): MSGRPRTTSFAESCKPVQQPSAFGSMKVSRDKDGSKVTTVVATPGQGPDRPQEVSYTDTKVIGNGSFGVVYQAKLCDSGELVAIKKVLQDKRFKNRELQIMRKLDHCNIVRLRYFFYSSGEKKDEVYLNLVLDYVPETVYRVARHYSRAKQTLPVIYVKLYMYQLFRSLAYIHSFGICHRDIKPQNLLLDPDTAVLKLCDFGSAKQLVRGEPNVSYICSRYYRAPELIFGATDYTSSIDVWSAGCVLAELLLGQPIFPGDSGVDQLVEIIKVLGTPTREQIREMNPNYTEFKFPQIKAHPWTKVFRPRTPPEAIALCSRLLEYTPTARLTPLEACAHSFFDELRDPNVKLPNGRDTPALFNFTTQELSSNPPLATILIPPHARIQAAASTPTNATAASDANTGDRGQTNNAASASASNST

SMILES: CN(c1nc(-c2ccncc2F)cc(=O)n1C)[C@H]1[C@@H]2CN(C(=O)c3ccc(C(F)(F)F)cc3)C[C@@H]21 [Example 122, 6-(3-Fluoropyridin-4-yl)-3-methyl-2-(methyl{(1R,5S,6s)-3-[4-(trifluoromethyl)benzoyl]-3-azabicyclo[3.1.0]hex-6-yl}amino)pyrimidin-4(3H)-one]
IC50 (Examples 62-155): 15.1 nM

SMILES: CN(c1nc(-c2ccncc2F)cc(=O)n1C)C1[C@H]2CN(C(=O)C34CC[C@@](C)(C(=O)O3)C4(C)C)C[C@@H]12 (stereo partly drawn) [Example 134, 6-(3-Fluoropyridin-4-yl)-3-methyl-2-{methyl[(1R,5S,6R)-3-{[(1S,4R)-4,7,7-trimethyl-3-oxo-2-oxabicyclo[2.2.1]hept-1-yl]carbonyl}-3-azabicyclo[3.1.0]hex-6-yl]amino}pyrimidin-4(3H)-one]
IC50 (Examples 62-155): 65.7 nM

SMILES: Cn1c(N[C@@H]2CN(S(=O)(=O)c3ccccc3)C[C@@H]2F)nc(-c2ccncc2)cc1=O [Example 184, 2-{[(3R,4S)-4-Fluoro-1-(phenylsulfonyl)pyrrolidin-3-yl]amino}-3-methyl-6-pyridin-4-ylpyrimidin-4(3H)-one]
inhibition at 1 µM (1 μM, Examples 157-199): 100%

SMILES: CCN(c1nc(-c2ccncc2)cc(=O)n1C)C1CCN(C(=O)Cc2ccccc2)CC1 [Example 92, 2-{Ethyl[1-(phenylacetyl)piperidin-4-yl]amino}-3-methyl-6-pyridin-4-ylpyrimidin-4(3H)-one]
IC50 (Examples 62-155): 105 nM

SMILES: COC(=O)CCC(=O)N1C[C@@H]2[C@H](C1)[C@H]2N(C)c1nc(-c2ccncc2F)cc(=O)n1C [Example 129, Methyl 4-[(1R,5S,6s)-6-{[4-(3-fluoropyridin-4-yl)-1-methyl-6-oxo-1,6-dihydropyrimidin-2-yl](methyl)amino}-3-azabicyclo[3.1.0]hex-3-yl]-4-oxobutanoate]
IC50 (Examples 62-155): 84.4 nM

SMILES: CCN(c1nc(-c2ccncc2)cc(=O)n1C)C1CCCN(C)CC1 (stereo not shown) [Example 247, 2-[Ethyl(1-methylazepan-4-yl)amino]-3-methyl-6-pyridin-4-ylpyrimidin-4(3H)-one]
inhibition at 1 µM (1 μM, Examples 236-262): 78%

SMILES: Cn1c(N2[C@@H]3CC[C@H]2CN(C(=O)OC(C)(C)C)C3)nc(-c2ccncc2)cc1=O [Example 12, tert-butyl (1R,5S)-8-(1-Methyl-6-oxo-4-pyridin-4-yl-1,6-dihydropyrimidin-2-yl)-3,8-diazabicyclo[3.2.1] octane-3-carboxylate]
IC50 (Examples 1-35): 32.4 nM

SMILES: CN(c1nc(-c2ccncc2)cc(=O)n1C)[C@@H]1CC[C@H]2N(S(=O)(=O)Cc3ccccc3)CCC2(C)C1 (stereo partly drawn) [Example 195, 2-{[(3,aS5,R7,aR)-1-(Benzylsulfonyl)-3a-methyloctahydro-1H-indol-5-yl](methyl)amino}-3-methyl-6-pyridin-4-ylpyrimidin-4(3H)-one]
inhibition at 1 µM (1 μM, Examples 157-199): 92%

SMILES: CN(c1nc(-c2ccncc2F)cc(=O)n1C)[C@H]1[C@@H]2CN(C(=O)c3ccc(OC(F)F)cc3)C[C@@H]21 [Example 113, 2-[{(1R,5S,6s)-3-[4-(Difluoromethoxy)benzoyl]-3-azabicyclo[3.1.0]hex-6-yl}(methyl)amino]-6-(3-fluoropyridin-4-yl)-3-methylpyrimidin-4(3H)-one]
IC50 (Examples 62-155): 8.57 nM

SMILES: Cn1c(NC2CN(C(=O)c3ccccc3)C2)nc(-c2ccncc2)cc1=O [Example 64, 2-[(1-Benzoylazetidin-3-yl)amino]-3-methyl-6-pyridin-4-ylpyrimidin-4(3H)-one]
IC50 (Examples 62-155): 367 nM

SMILES: CC(=O)N1CCCC(Nc2nc(-c3ccncc3)cc(=O)n2C)CC1 (stereo not shown) [Example 43, 2-[(1-Acetylazepan-4-yl)amino]-3-methyl-6-pyridin-4-ylpyrimidin-4(3H)-one]
inhibition at 1 µM [1]: 84%

SMILES: COC(=O)N1CCCC(N(C)c2nc(-c3ccncc3)cc(=O)n2C)CC1 (stereo not shown) [Example 214, Methyl 4-[methyl(1-methyl-6-oxo-4-pyridin-4-yl-16-dihydropyrimidin-2-yl)amino]azepane-1-carboxylate]
Percent inhibition at 1 μM (1 μM, Examples 201-221): 99%

SMILES: COC(=O)N1CCC[C@@H]1CNc1nc(-c2ccncc2)cc(=O)n1C [Example 220, Methyl (2R)-2-{[(1-methyl-6-oxo-4-pyridin-4-yl-16-dihydropyrimidin-2-yl)amino]methyl}pyrrolidine-1-carboxylate]
inhibition at 1 µM (1 μM, Examples 201-221): 91%

SMILES: Cn1c(NC[C@H]2CCN(C(=O)OC(C)(C)C)C2)nc(-c2ccncc2)cc1=O [Example 14, tert-butyl (3R)-3-{[(1-Methyl-6-oxo-4-pyridin-4-yl-1,6-dihydropyrimidin-2-yl)amino]methyl} pyrrolidine-1-carboxylate]
IC50 (Examples 1-35): 74 nM

SMILES: CN(c1nc(-c2ccncc2F)cc(=O)n1C)[C@H]1[C@@H]2CN(C(=O)c3cccnc3Cl)C[C@@H]21 [Example 111, 2-[{(1R,5S,6s)-3-[(2-Chloropyridin-3-yl)carbonyl]-3-azabicyclo[3.1.0]hex-6-yl}(methyl)amino]-6-(3-fluoropyridin-4-yl)-3-methylpyrimidin-4(3H)-one]
IC50 (Examples 62-155): 2.2 nM

SMILES: Cn1c(N[C@@H]2CCCN(C(=O)OCc3ccncc3)C2)nc(-c2ccncn2)cc1=O [Example 233, Pyridin-4-ylmethyl (3R)-3-[(1-methyl-6-oxo-1,6-dihydro-4,4′-bipyrimidin-2-yl)amino]piperidine-1-carboxylate]
IC50 (Examples 222-234): 5 nM

SMILES: COC(=O)N1CCC(CNc2nc(-c3ccncc3)cc(=O)n2C)C1 (stereo not shown) [Example 221, Methyl 3-{[(1-methyl-6-oxo-4-pyridin-4-yl-16-dihydropyrimidin-2-yl)amino]methyl}pyrrolidine-1-carboxylate]
inhibition at 1 µM (1 μM, Examples 201-221): 71%

The next lines start with the values.

inhibition at 1 µM (1 μM, Examples 236-262): 48%
SMILES: Cn1c(N[C@@H]2CC[C@@H](NCc3ccccc3)C2)nc(-c2ccncc2)cc1=O [Example 262, 2-{[(1R,3R)-3-(Benzylamino)cyclopen-tyl]amino}-3-methyl-6-pyridin-4-ylpyrimidin-4(3H)-one]

IC50 (Examples 62-155): 4.52 nM
SMILES: CN(c1nc(-c2ccncc2F)cc(=O)n1C)[C@H]1[C@@H]2CN(C(=O)c3cnn(C)c3Cl)C[C@@H]21 [Example 120, 2-[{(1R,5S,6s)-3-[(5-Chloro-1-methyl-1H-pyrazol-4-yl)carbonyl]-3-azabicyclo[3.1.0]hex-6-yl}(methyl)amino]-6-(3-fluoropyridin-4-yl)-3-methylpyrimidin-4(3H)-one]

IC50 (Examples 62-155): 136 nM
SMILES: Cn1c(NC2CCCN(C(=O)Cc3ccccc3)C2)nc(-c2ccncc2)cc1=O (stereo not shown) [Example 86, 3-Methyl-2-{[1-(phenylacetyl)piperidin-3-yl]amino}-6-pyridin-4-ylpyrimidin-4(3H)-one]

IC50 (Examples 1-35): 25 nM
SMILES: Cn1c(NCCn2c(=O)ccc3ccccc32)nc(-c2ccncc2)cc1=O [Example 30, 1-{2-[(1-Methyl-6-oxo-4-pyridin-4-yl-1,6-dihydropyrimidin-2-yl)amino]ethyl} quinolin-2(1H)-one]

inhibition at 1 µM (1 μM, Examples 157-199): 93%
SMILES: Cn1c(NC2CCCN(S(=O)(=O)c3ccccc3)C2)nc(-c2ccncc2)cc1=O (stereo not shown) [Example 179, 3-Methy-2-{[1-(phenylsulfonyl)piperidin-3-yl]amino}-6-pyridin-4-ylpyrimidin-4(3H)-one]

IC50 (Examples 62-155): 277 nM
SMILES: Cn1c(NC[C@H]2CCCN2C(=O)c2ccccc2)nc(-c2ccncc2)cc1=O [Example 78, 2-({[(2R)-1-Benzoylpyrrolidin-2-yl]methyl}amino)-3-methyl-6-pyridin-4-ylpyrimidin-4(3H)-one]

inhibition at 1 µM [1]: 55%
SMILES: CC(=O)N1CCCC(Nc2nc(-c3ccncc3)cc(=O)n2C)C1 (stereo not shown) [Example 48, 2-[(1-Acetylpiperidin-3-yl)amino]-3-methyl-6-pyridin-4-ylpyrimidin-4(3H)-one]

IC50 (Examples 265-291): 76.1 nM
SMILES: CN(c1nc(-c2ccncc2F)cc(=O)n1C)[C@H]1[C@@H]2CN(c3nc4ccccc4[nH]3)C[C@@H]21 [Example 272, 2-{[(1R,5S,6s)-3-(1H-Benzimidazol-2-yl)-3-azabicyclo[3.1.0]hex-6-yl](methyl)amino}-6-(3-fluoropyridin-4-yl)-3-methylpyrimidin-4(3H)-one]

IC50 (Examples 62-155): 147 nM
SMILES: CCN(c1nc(-c2ccncc2)cc(=O)n1C)C1CCCN(C(=O)Cc2ccccc2)C1 (stereo not shown) [Example 91, 2-{Ethyl[1-(phenylacetyl)piperidin-3-yl]amino}-3-methyl-6-pyridin-4-ylpyrimidin-4(3H)-one]

IC50 (Examples 62-155): 0.91 nM
SMILES: COc1ccccc1C(=O)N1C[C@@H]2[C@H](C1)[C@H]2N(C)c1nc(-c2ccncc2F)cc(=O)n1C [Example 106, 6-(3-Fluoropyridin-4-yl)-2-{[(1R,5S,6s)-3-(2-methoxybenzoyl)-3-azabicyclo[3.1.0]hex-6-yl](methyl)amino}-3-methylpyrimidin-4(3H)-one]

IC50 (Examples 62-155): 36.1 nM
SMILES: CN(c1nc(-c2ccncc2F)cc(=O)n1C)[C@H]1[C@@H]2CN(C(=O)c3ccncc3Cl)C[C@@H]21 [Example 148, 2-{[(1R,5S,6s)-3-(3-Chloroisonicotinoyl)-3-azabicyclo[3.1.0]hex-6-yl](methyl)amino}-6-(3-fluoropyridin-4-yl)-3-methylpyrimidin-4(3H)-one]

IC50 (Examples 62-155): 818 nM
SMILES: Cn1c(NC2CN(C(=O)Cc3ccccc3)C2)nc(-c2ccncc2)cc1=O [Example 82, 3-Methyl-2-{[1-(phenylacetyl)azetidin-3-yl]amino}-6-pyridin-4-ylpyrimidin-4(3H)-one]

inhibition at 1 µM (1 μM, Examples 157-199): 81%
SMILES: Cn1c(NC2CCCN(S(=O)(=O)Cc3ccccc3)CC2)nc(-c2ccncc2)cc1=O (stereo not shown) [Example 192, 2-{[1-(Benzylsulfonyl)azepan-4-yl]amino}-3-methyl-6-pyridin-4-ylpyrimidin-4(3H)-one]

IC50 (Examples 1-35): 4.2 nM
SMILES: CCN(C[C@@H]1CCCN1C(=O)OC(C)(C)C)c1nc(-c2ccncc2)cc(=O)n1C [Example 4, tert-butyl (2S)-2-{[Ethyl(1-methyl-6-oxo-4-pyridin-4-yl-1,6-dihydropyrimidin-2-yl)amino]methyl} pyrrolidine-1-carboxylate]
